Source: the supplement of paper PMC10307832

What was measured:
Experiment in all cases: relative viability (nuclei count vs DMSO), 5 days (fraction); higher = more cells survive
PC-3 [JPC-3] = system: PC-3 [JPC-3]
How it was run: (§1)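 Lung cancer cell lines were pin-tool dosed in 1536-well plates on the day after seeding, with either a lone drug or a fixed anchor-drug dose plus five library-drug doses (not always all listed) in √10 steps. Nuclei were counted on 4× images after 5 days. Relative viability is the ratio of treated-well to vehicle-well nuclei counts, with each value a median of duplicate plates.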

NCI-H1734 = system: NCI-H1734
How it was run: as §1

NCI-H1975 = system: NCI-H1975
How it was run: as §1

NCI-H1792 = system: NCI-H1792
How it was run: as §1

HOP-62 = system: HOP-62
How it was run: as §1

NCI-H358 = system: NCI-H358
How it was run: as §1

NCI-H2347 = system: NCI-H2347
How it was run: as §1

NCI-H460 = system: NCI-H460
How it was run: as §1

HCC-78 = system: HCC-78
How it was run: as §1

NCI-H1755 = system: NCI-H1755
How it was run: as §1

NCI-H2126 = system: NCI-H2126
How it was run: as §1

A-427 = system: A-427
How it was run: as §1

`Clc1ccc(Nc2nnc(Cc3ccncc3)c3ccccc23)cc1` [Vatalanib] + N=C(N)NC(=N)NCCc1ccccc1 [Phenformin] (partner 250 µM) was tested, and the relative viability (PC-3 [JPC-3]; first compound 0.04 µM) was 0.456, the relative viability (PC-3 [JPC-3]; first compound 0.1265 µM) was 0.465 and the relative viability (PC-3 [JPC-3]; first compound 0.4 µM) was 0.456. For the same molecule, the relative viability (PC-3 [JPC-3]; first compound 1.265 µM) was 0.493, the relative viability (PC-3 [JPC-3]; first compound 4 µM) was 0.508 and the relative viability (NCI-H1734; first compound 0.04 µM) was 0.459. For the same molecule, the relative viability (NCI-H1734; first compound 0.1265 µM) was 0.328, the relative viability (NCI-H1734; first compound 0.4 µM) was 0.463 and the relative viability (NCI-H1734; first compound 1.265 µM) was 0.322. It also gave a relative viability (NCI-H1734; first compound 4 µM) of 0.346, a relative viability (NCI-H1975; first compound 0.04 µM) of 0.405 and a relative viability (NCI-H1975; first compound 0.1265 µM) of 0.415. It also gave a relative viability (NCI-H1975; first compound 0.4 µM) of 0.422, a relative viability (NCI-H1975; first compound 1.265 µM) of 0.357 and a relative viability (NCI-H1975; first compound 4 µM) of 0.4. The relative viability (NCI-H1792; first compound 0.04 µM) was 0.257, the relative viability (NCI-H1792; first compound 0.4 µM) was 0.224 and the relative viability (NCI-H1792; first compound 1.265 µM) was 0.236. For the same molecule, the relative viability (NCI-H1792; first compound 4 µM) was 0.386, the relative viability (HOP-62; first compound 0.04 µM) was 0.668 and the relative viability (HOP-62; first compound 0.1265 µM) was 0.65. It also gave a relative viability (HOP-62; first compound 0.4 µM) of 0.649, a relative viability (HOP-62; first compound 1.265 µM) of 0.624 and a relative viability (HOP-62; first compound 4 µM) of 0.633. It also gave a relative viability (NCI-H358; first compound 0.04 µM) of 0.32, a relative viability (NCI-H358; first compound 0.1265 µM) of 0.304 and a relative viability (NCI-H358; first compound 0.4 µM) of 0.381. The relative viability (NCI-H358; first compound 1.265 µM) was 0.367, the relative viability (NCI-H358; first compound 4 µM) was 0.326 and the relative viability (NCI-H2347; first compound 0.04 µM) was 0.323. For the same molecule, the relative viability (NCI-H2347; first compound 0.1265 µM) was 0.426, the relative viability (NCI-H2347; first compound 0.4 µM) was 0.401 and the relative viability (NCI-H2347; first compound 1.265 µM) was 0.266. For the same molecule, the relative viability (NCI-H2347; first compound 4 µM) was 0.389, the relative viability (NCI-H460; first compound 0.04 µM) was 0.582 and the relative viability (NCI-H460; first compound 0.1265 µM) was 0.539. It also gave a relative viability (NCI-H460; first compound 0.4 µM) of 0.556, a relative viability (NCI-H460; first compound 1.265 µM) of 0.51 and a relative viability (NCI-H460; first compound 4 µM) of 0.432. For the same molecule, the relative viability (HCC-78; first compound 0.04 µM) was 0.589, the relative viability (HCC-78; first compound 0.1265 µM) was 0.613 and the relative viability (HCC-78; first compound 0.4 µM) was 0.631. For the same molecule, the relative viability (HCC-78; first compound 1.265 µM) was 0.649, the relative viability (HCC-78; first compound 4 µM) was 0.575 and the relative viability (NCI-H1755; first compound 0.04 µM) was 0.613. For the same molecule, the relative viability (NCI-H1755; first compound 0.1265 µM) was 0.577, the relative viability (NCI-H1755; first compound 0.4 µM) was 0.661 and the relative viability (NCI-H1755; first compound 1.265 µM) was 0.596. The relative viability (NCI-H1755; first compound 4 µM) was 0.603, the relative viability (NCI-H2126; first compound 0.04 µM) was 0.508 and the relative viability (NCI-H2126; first compound 0.1265 µM) was 0.521. The relative viability (NCI-H2126; first compound 0.4 µM) was 0.453, the relative viability (NCI-H2126; first compound 1.265 µM) was 0.487 and the relative viability (NCI-H2126; first compound 4 µM) was 0.546. The relative viability (A-427; first compound 0.04 µM) was 0.427, the relative viability (A-427; first compound 0.1265 µM) was 0.295 and the relative viability (A-427; first compound 0.4 µM) was 0.285. The relative viability (A-427; first compound 1.265 µM) was 0.31 and the relative viability (A-427; first compound 4 µM) was 0.298.
